Measurements as given in paper PMC8190080, “Tanshinones induce tumor cell apoptosis via directly targeting FHIT” (Scientific Reports, 2021).

Target: T1, ENPP1 (Homo sapiens, UniProt P22413)
T1 sequence (P22413 1-925): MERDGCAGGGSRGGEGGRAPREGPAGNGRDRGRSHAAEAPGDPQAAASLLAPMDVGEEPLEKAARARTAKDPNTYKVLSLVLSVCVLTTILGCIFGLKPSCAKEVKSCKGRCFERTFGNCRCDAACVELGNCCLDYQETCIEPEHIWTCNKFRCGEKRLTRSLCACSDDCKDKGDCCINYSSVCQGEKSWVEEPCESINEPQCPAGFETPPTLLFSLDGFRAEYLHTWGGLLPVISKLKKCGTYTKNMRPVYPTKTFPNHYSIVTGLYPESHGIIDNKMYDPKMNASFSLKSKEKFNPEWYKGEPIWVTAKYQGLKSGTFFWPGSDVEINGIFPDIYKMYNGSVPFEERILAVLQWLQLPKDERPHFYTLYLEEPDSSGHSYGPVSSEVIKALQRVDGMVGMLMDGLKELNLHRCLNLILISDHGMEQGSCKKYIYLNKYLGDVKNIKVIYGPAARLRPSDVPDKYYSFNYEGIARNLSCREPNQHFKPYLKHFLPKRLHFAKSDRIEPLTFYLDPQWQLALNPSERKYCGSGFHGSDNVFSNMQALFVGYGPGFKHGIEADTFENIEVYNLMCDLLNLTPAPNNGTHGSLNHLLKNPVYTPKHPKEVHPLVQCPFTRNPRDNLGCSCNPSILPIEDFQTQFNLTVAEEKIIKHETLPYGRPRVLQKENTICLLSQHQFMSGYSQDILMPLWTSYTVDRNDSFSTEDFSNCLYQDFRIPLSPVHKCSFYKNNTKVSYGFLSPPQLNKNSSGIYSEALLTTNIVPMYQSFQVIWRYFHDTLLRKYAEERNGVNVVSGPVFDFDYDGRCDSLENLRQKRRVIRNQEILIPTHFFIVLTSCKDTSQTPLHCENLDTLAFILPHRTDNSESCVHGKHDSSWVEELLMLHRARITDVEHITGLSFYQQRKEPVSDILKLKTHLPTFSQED
Assay: MST assay, ENPP1
Assay type: binding

- Kd: 27.2 ± 1.96 µM
SMILES: Cc1c(S(=O)(=O)O)oc2c1C(=O)C(=O)c1c-2ccc2c1CCCC2(C)C [STS, Sodium tanshinone IIA sulfonate]
